The test addresses T1, human Werner helicase (WRN-BV08, Uniprot Q14191, amino acids 517-1235 with L1074F point mutation) (Homo sapiens, UniProt Q14191, L1074F).
T1 construct: Uniprot Q14191, amino acids 517-1235 with L1074F point mutation; TEV-cleavable 8×His (C, cleaved yes); made in house; host or cells: Sf9 insect cells (baculovirus)
Put plainly: WRN (BV08) ADP-Glo Assay. The format is biochemical. The settings on record: 0.15 nM WRN, 5 μM ATP, 0.1 nM DNA duplex, 15 min preincubation, 60 min at 25° C., pH 7.5, 1% DMSO; read-out: ADP-Glo_hWRN_IC50. Summed up: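 Percent inhibition was normalised to DMSO (max) and 20 μM NSC-617145 (min) controls from ADP-Glo luminescence, and IC50 values came from a four-parameter fit. The reaction ran 60 min at 25 °C with 0.15 nM WRN, 5 μM ATP and 0.1 nM duplex DNA.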
Background: ADP-Glo first removes unused ATP, then detects ADP through luciferase.
T1 sequence (Q14191 with tags, fused parts or gaps L1074F limits assumed): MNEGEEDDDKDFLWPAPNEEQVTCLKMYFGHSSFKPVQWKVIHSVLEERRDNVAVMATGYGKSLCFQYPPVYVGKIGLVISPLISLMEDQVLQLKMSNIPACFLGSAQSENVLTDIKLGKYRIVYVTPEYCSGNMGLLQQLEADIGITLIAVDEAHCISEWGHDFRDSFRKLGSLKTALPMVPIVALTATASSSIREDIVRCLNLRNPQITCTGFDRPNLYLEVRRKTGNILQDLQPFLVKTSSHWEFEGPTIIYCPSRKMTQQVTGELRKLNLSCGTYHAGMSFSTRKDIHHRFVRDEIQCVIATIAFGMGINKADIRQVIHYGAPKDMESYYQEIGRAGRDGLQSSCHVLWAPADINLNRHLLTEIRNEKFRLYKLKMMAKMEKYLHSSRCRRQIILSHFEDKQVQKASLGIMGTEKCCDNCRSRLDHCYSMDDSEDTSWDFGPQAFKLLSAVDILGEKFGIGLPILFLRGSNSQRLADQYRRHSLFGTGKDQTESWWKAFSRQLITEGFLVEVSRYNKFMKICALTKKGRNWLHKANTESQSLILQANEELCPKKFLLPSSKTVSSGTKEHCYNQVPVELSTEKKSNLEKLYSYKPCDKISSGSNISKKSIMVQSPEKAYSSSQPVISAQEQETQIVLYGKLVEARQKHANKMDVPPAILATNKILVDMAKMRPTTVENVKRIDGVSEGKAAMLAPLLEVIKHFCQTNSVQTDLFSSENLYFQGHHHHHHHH
Regarding `O=C(Cc1ccc(-n2cccc2)cc1)N(Cc1nc(CC(F)(F)F)cs1)C1C=CS(=O)(=O)C1` (stereo not drawn) [I-148, N-(1,1-dioxo-2,3-dihydro-1lambda6-thiophen-3-yl)-2-[4-(1H-pyrrol-1-yl)phenyl]-N-{[4-(2,2,2-trifluoroethyl)-1,3-thiazol-2-yl]methyl}acetamide], the IC50 was in the range of 0.5 to 5 µM. The result for `O=C(Cc1ccc(-n2cccc2)cc1)N(Cc1nc2ccccc2s1)C1C=CS(=O)(=O)C1` (stereo not drawn) [I-149, N-[(1,3-benzothiazol-2-yl)methyl]-N-(1,1-dioxo-2,3-dihydro-1lambda6-thiophen-3-yl)-2-[4-(1H-pyrrol-1-yl)phenyl]acetamide] reads 0.5 to 5 µM.

As for `Cc1cccn1-c1ccc(CC(=O)N(Cc2ccnnc2)C2C=CS(=O)(=O)C2)c(F)c1` (stereo not drawn) [I-150, N-(1,1-dioxo-2,3-dihydro-1lambda6-thiophen-3-yl)-2-[2-fluoro-4-(2-methyl-1H-pyrrol-1-yl)phenyl]-N-[(pyridazin-4-yl)methyl]acetamide], the IC50 lay in the range of 0.5 to 5 µM. The value for `CC(C)c1ccc(CC(=O)N(Cc2ccncc2)C2C=CS(=O)(=O)C2)c(F)c1` (stereo not drawn) [I-151, N-(1,1-dioxo-2,3-dihydro-1lambda6-thiophen-3-yl)-2-[2-fluoro-4-(propan-2-yl)phenyl]-N-[(pyridin-4-yl)methyl]acetamide] was 0.5 to 5 µM; that for `CC(C)(O)c1cc(CN(C(=O)Cc2ccc(-n3cccc3)cc2)C2C=CS(=O)(=O)C2)ccn1` (stereo not drawn) [I-152, N-(1,1-dioxo-2,3-dihydro-1lambda6-thiophen-3-yl)-N-{[2-(2-hydroxypropan-2-yl)pyridin-4-yl]methyl}-2-[4-(1H-pyrrol-1-yl)phenyl]acetamide] was 0.5 to 5 µM; that for `C#CCN(C)C(=O)c1ccc(CN(C(=O)Cc2ccc(-n3cccc3)cc2F)C2C=CS(=O)(=O)C2)cc1` (stereo not drawn) [I-153, 4-{[N-(1,1-dioxo-2,3-dihydro-1lambda6-thiophen-3-yl)-2-[2-fluoro-4-(1H-pyrrol-1-yl)phenyl]acetamido]methyl}-N-methyl-N-(prop-2-yn-1-yl)benzamide] was 0.5 to 5 µM. The value for `O=C(Cc1ccc(-n2cccc2)cc1)N(Cc1nc2c(s1)CCCC2)C1C=CS(=O)(=O)C1` (stereo not drawn) [I-154, N-(1,1-dioxo-2,3-dihydro-1lambda6-thiophen-3-yl)-2-[4-(1H-pyrrol-1-yl)phenyl]-N-[(4,5,6,7-tetrahydro-1,3-benzothiazol-2-yl)methyl]acetamide] was 0.5 to 5 µM; that for `O=C(Cc1ccc(-n2cccc2)cc1)N(Cc1nc2c(s1)CCC2)C1C=CS(=O)(=O)C1` (stereo not drawn) [I-155, N-({4H,5H,6H-cyclopenta[d][1,3]thiazol-2-yl}methyl)-N-(1,1-dioxo-2,3-dihydro-1lambda6-thiophen-3-yl)-2-[4-(1H-pyrrol-1-yl)phenyl]acetamide] was 0.5 to 5 µM. Take `COc1cc(CN(C(=O)Cc2ccc(-n3cccc3)cc2)C2C=CS(=O)(=O)C2)ccn1` (stereo not drawn) [I-156, N-(1,1-dioxo-2,3-dihydro-1lambda6-thiophen-3-yl)-N-[(2-methoxypyridin-4-yl)methyl]-2-[4-(1H-pyrrol-1-yl)phenyl]acetamide]: the IC50 lay within 0.5 to 5 µM. The value for `O=C(Cc1ccc(-n2cccc2)cc1)N(Cc1cccc(Br)c1)C1C=CS(=O)(=O)C1` (stereo not drawn) [I-157, N-[(3-bromophenyl)methyl]-N-(1,1-dioxo-2,3-dihydro-1lambda6-thiophen-3-yl)-2-[4-(1H-pyrrol-1-yl)phenyl]acetamide] was 0.5 to 5 µM. The value for `COc1cc(CN(C(=O)Cc2ccc(-c3ccc(F)cc3)cc2)C2C=CS(=O)(=O)C2)ccn1` (stereo not drawn) [I-158, N-(1,1-dioxo-2,3-dihydro-1lambda6-thiophen-3-yl)-2-{4′-fluoro-[1,1′-biphenyl]-4-yl}-N-[(2-methoxypyridin-4-yl)methyl]acetamide] was 0.5 to 5 µM; that for `COc1cc(CN(C(=O)C(C(=O)N(C)C)c2ccc(S(F)(F)(F)(F)F)cc2)C2C=CS(=O)(=O)C2)ccn1` (stereo not drawn) [I-159, N′-(1,1-dioxo-2,3-dihydro-1lambda6-thiophen-3-yl)-N′-[(2-methoxypyridin-4-yl)methyl]-N,N-dimethyl-2-[4-(pentafluoro-lambda6-sulfanyl)phenyl]propanediamide] was 0.5 to 5 µM.

The values above are taken from US20260297070A1, “CYCLIC [COMPOUND LEFT OUT] WRN INHIBITORS” (Nimbus Wadjet, Inc., priority 2023, published 2026).
